Results published in patent US9839642B2, “Beta-tetrazolyl-propionic acids as metallo-beta-lactamase inhibitors” (priority 2014, dated 2017).

What was measured:
[1] = biological target: VIM-1 (Pseudomonas aeruginosa, UniProt A0A0F7KYQ8); assay: Enzyme activity: determination of IC50, fluorescence assay with CCF2-FA substrate; type: biochemical; settings: VIM-1 enzyme 30 pM, CCF2-FA 1.25 μM, 2 hours at 25° C.; read-out: VIM1 IC50
Procedure, shortened: (§1)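 Final enzyme levels differed by target: 1 pM NDM-1, 2 pM IMP-1, 30 pM VIM-1. Each was incubated 2 hours at 25° C with test compound and 1.25 μM CCF2-FA, and 460 nm fluorescence (405 nm excitation) was fitted by 4-parameter curve to obtain IC50.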

[2] = biological target: NDM-1 (Klebsiella pneumoniae, UniProt C7C422); assay: as above; type: biochemical; settings: NDM-1 enzyme 1 pM, CCF2-FA 1.25 μM, 2 hours at 25° C.; read-out: NDM1 IC50
Procedure, shortened: as §1

[3] = biological target: IMP-1 (Serratia marcescens, UniProt P52699); assay: as above; type: biochemical; settings: IMP-1 enzyme 2 pM, CCF2-FA 1.25 μM, 2 hours at 25° C.; read-out: IMP1 IC50
Procedure, shortened: as §1

[4] = tested on: Serratia marcescens expressing IMP-1 (CL5741); assay: Antibiotic potentiation activity: synergistic concentration (MITC95) with imipenem, growth by OD600; type: cell-based; settings: S. marcescens CL5741 (IMP-1), 95% inhibition of growth
Procedure, shortened: (§2)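 Colonies from overnight agar plates (35 °C) were suspended in saline and diluted 1:100 into 1.1× CAMHB. Inhibitor (final 200 μM to 0.195 μM) was combined with imipenem at 1 or 4 μg/ml, incubated 22–24 h at 35 °C, and absorbance read; MITC95 is the lowest inhibitor concentration giving 95% growth inhibition.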

[5] = tested on: Escherichia coli expressing NDM-1 (CLB30016); assay: as above; type: cell-based; settings: E. coli CLB30016 (NDM-1), 95% inhibition of growth
Procedure, shortened: as §2

[6] = tested on: Klebsiella pneumoniae expressing VIM-1 (IHMA599644); assay: as above; type: cell-based; settings: K. pneumoniae IHMA599644 (VIM-1), 95% inhibition of growth
Procedure, shortened: as §2

Chain of NDM-1 (C7C422 29-270, looked up, species assumed): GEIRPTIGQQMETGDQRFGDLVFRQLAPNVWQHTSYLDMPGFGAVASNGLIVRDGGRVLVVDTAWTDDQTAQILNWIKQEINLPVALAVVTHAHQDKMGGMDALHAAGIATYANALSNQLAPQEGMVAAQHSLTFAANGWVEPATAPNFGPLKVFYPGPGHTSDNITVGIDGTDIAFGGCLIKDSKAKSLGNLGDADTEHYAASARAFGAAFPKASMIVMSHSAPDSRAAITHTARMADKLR
Chain of IMP-1 (P52699 19-246, looked up, species assumed): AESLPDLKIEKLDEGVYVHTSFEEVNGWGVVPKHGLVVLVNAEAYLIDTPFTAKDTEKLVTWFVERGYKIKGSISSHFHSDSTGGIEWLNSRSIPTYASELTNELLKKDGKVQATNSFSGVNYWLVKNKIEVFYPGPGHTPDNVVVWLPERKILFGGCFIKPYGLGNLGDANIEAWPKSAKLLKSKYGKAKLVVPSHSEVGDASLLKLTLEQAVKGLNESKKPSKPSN

SMILES | IC50 [1] [nM] | IC50 [2] [nM] | IC50 [3] [nM] | IMP1 SM5741 MITC95 [4] [µM] | NDM1 EC30016 MITC95 [5] [µM] | VIM1 KP599644 MITC95 [6] [µM]
CCC[C@H](C(=O)[O-])[C@H](Cc1ccc(C2CCC[N+](C)(C)C2)nc1)c1nnn[nH]1 (stereo partly drawn) [Example 292, (2S)-2-((1S)-2-(6-(1,1-dimethylpiperidin-1-ium-3-yl)pyridin-3-yl)-1-(1H-tetrazol-5-yl)ethyl)pentanoate] | 78 | 2600 | 16000 | 150 | 38 | 50
CCC[C@H](C(=O)[O-])[C@H](Cc1ccc(C2=CCC[N+](C)(C)C2)nc1)c1nnn[nH]1 [Example 293, (S)-2-((S)-2-(1′,1′-dimethyl-1′,2′,5′,6′-tetrahydro-[2,3′-bipyridin]-1′-ium-5-yl)-1-(1H-tetrazol-5-yl)ethyl)pentanoate] | 22 | 2400 | 16000 | 100 | 25 | 50
CCC[C@H](C(=O)[O-])[C@H](Cc1ccc(C2CC[N+](C)(C)CC2)cc1)c1nnn[nH]1 [Example 294, (S)-2-((S)-2-(4-(1,1-dimethylpiperidin-1-ium-4-yl)phenyl)-1-(1H-tetrazol-5-yl)ethyl)pentanoate] | 76 | 170 | 690 | 9.4 | 12.5 | 25
CCC[C@H](C(=O)[O-])[C@H](Cc1ccc(C2=CC[N+](C)(C)CC2)cc1)c1nnn[nH]1 [Example 295, (S)-2-((S)-2-(4-(1,1-dimethyl-1,2,3,6-tetrahydropyridin-1-ium-4-yl)phenyl)-1-(1H-tetrazol-5-yl)ethyl)pentanoate] | 1600 | 440 | 1100 | 12.5 | 12.5 | 25
CCC[C@H](C(=O)O)[C@H](Cc1ccc(C2CCN(C(=N)N)CC2)cc1)c1nnn[nH]1 [Example 296, (S)-2-((S)-2-(4-(1-carbamimidoylpiperidin-4-yl)phenyl)-1-(1H-tetrazol-5-yl)ethyl)pentanoic acid] | 21 | 32 | 180 | 6.2 | 4.7 | 12.5
CCC[C@H](C(=O)O)[C@H](Cc1ccc(C2CCN(C=N)CC2)cc1)c1nnn[nH]1 [Example 297, (S)-2-((S)-2-(4-(1-(iminomethyl)piperidin-4-yl)phenyl)-1-(1H-tetrazol-5-yl)ethyl)pentanoic acid] | 25 | 26 | 200 | 6.2 | 4.7 | 18.8
CCC[C@H](C(=O)O)[C@H](Cc1ccc(C2CCN(C(=N)N)CC2)nc1)c1nnn[nH]1 [Example 298, (S)-2-((S)-2-(6-(1-carbamimidoylpiperidin-4-yl)pyridin-3-yl)-1-(1H-tetrazol-5-yl)ethyl)pentanoic acid] | 10 | 110 | 2700 | 25 | 1.6 | 12.5
CCC[C@H](C(=O)O)[C@H](Cc1ccc(C2CCN(C=N)CC2)nc1)c1nnn[nH]1 [Example 299, (S)-2-((S)-2-(6-(1-(iminomethyl)piperidin-4-yl)pyridin-3-yl)-1-(1H-tetrazol-5-yl)ethyl)pentanoic acid] | 22 | 220 | 4400 | 50 | 1.6 | 25
CCC[C@H](C(=O)O)[C@H](Cc1ccc(C2CCN(C)CC2)cc1)c1nn[nH]n1 [Example 300, (2S)-2-[(1S)-2-[4-(1-methylpiperidin-4-yl)phenyl]-1-(2H-tetrazol-5-yl)ethyl]pentanoic acid] | 140 | 550 | 2100 | 25 | 50 | 100
CCC[C@H](C(=O)O)[C@H](Cc1ccc(-c2ccc(CC3CCNCC3)cc2)cc1)c1nn[nH]n1 [Example 301, (2S)-2-[(1S)-2-[4′-(piperidin-4-ylmethyl)biphenyl-4-yl]-1-(2H-tetrazol-5-yl)ethyl]pentanoic acid] | 31 | 43 | 68 | 2.3 | 12.5 | 100
CCC[C@H](C(=O)O)[C@H](Cc1ccc(C2=CCCNC2)cc1)c1nn[nH]n1 [Example 302, (2S)-2-[(1S)-2-[4-(1,2,5,6-tetrahydropyridin-3-yl)phenyl]-1-(2H-tetrazol-5-yl)ethyl]pentanoic acid] | 18 | 980 | 3100 | 50 | 38 | 50
CC(C)C[C@H](C(=O)O)[C@H](Cc1ccc(N2CCCC2c2ccccc2)nc1)c1nnn[nH]1 (stereo partly drawn) [Example 303, (2S)-4-methyl-2-[(1S)-2-[6-(2-phenylpyrrolidin-1-yl)pyridin-3-yl]-1-(1H-tetrazol-5-yl)ethyl]pentanoic acid] | 3.9 | 14 | 96 | 4.7 | 18.8 | 200
CC(C)C[C@H](C(=O)O)[C@H](Cc1ccc(N2CCCC2)nc1)c1nnn[nH]1 [Example 304, (2S)-4-methyl-2-[(1S)-2-(6-pyrrolidin-1-ylpyridin-3-yl)-1-(1H-tetrazol-5-yl)ethyl]pentanoic acid] | 7.8 | 170 | 1300 | 38 | 4.7 | 18.8
CNC(=O)C1CCN(c2ccc(C[C@H](c3nnn[nH]3)[C@H](CC(C)C)C(=O)O)cn2)C1 (stereo partly drawn) [Example 305, (2S)-4-methyl-2-[(1S)-2-{6-[3-(methylcarbamoyl)pyrrolidin-1-yl]pyridin-3-yl}-1-(1H-tetrazol-5-yl)ethyl]pentanoic acid] | 12 | 120 | 250 | 6.2 | 2.3 | 25
CC(C)C[C@H](C(=O)O)[C@H](Cc1ccc(N2CCC(CN)C2)nc1)c1nnn[nH]1 (stereo partly drawn) [Example 306, (2S)-2-[(1S)-2-{6-[3-(aminomethyl)pyrrolidin-1-yl]pyridin-3-yl}-1-(1H-tetrazol-5-yl)ethyl]-4-methylpentanoic acid] | 13 | 670 | 2700 | 25 | 3.1 | 12.5
CC(C)C[C@H](C(=O)O)[C@H](Cc1ccc(N2CCC(CN)CC2)nc1)c1nnn[nH]1 [Example 307, (2S)-2-[(1S)-2-{6-[4-(aminomethyl)piperidin-1-yl]pyridin-3-yl}-1-(1H-tetrazol-5-yl)ethyl]-4-methylpentanoic acid] | 24 | 120 | 390 | 6.2 | 4.7 | 25
